Assay results from patent US9580432B2, “Fused pyrimidine compound or salt thereof” (TAIHO PHARMACEUTICAL CO., LTD., priority 2013, dated 2017).

Legend:
[1] = target: purified recombinant human BTK protein (Homo sapiens (Human), UniProt Q06187); assay: Measurement of BTK inhibitory activity (in vitro); type: biochemical; settings: FL-PEPTIDE 2 substrate 1 μM, ATP 45 μM, 40 minutes at 25° C.
Source text: With regard to the setting of the conditions for a method for measuring the inhibitory activity of a compound against BTK kinase activity in vitro, it is described in the consumable reagent supplies price list for LabChip (registered trademark) series of PerkinElmer, Inc. that FL-PEPTIDE 2 corresponds to a substrate peptide for the measurement of BTK kinase activity. Therefore, FL-PEPTIDE 2 was used as a substrate. The purified recombinant human BTK protein used in the test was purchased from Carna Biosciences, Inc.
With regard to the measurement of the inhibitory activity of the compounds, firstly, the compounds of the present invention were diluted stepwise with dimethyl sulfoxide (DMSO). Subsequently, BTK protein, a substrate peptide (final concentration was 1 μM), magnesium chloride (final concentration was 10 mM), ATP (final concentration was 45 μM), and a DMSO solution of the compounds of the present invention (final concentration of DMSO was 5%) were added to a buffer solution for kinase reaction (20 mM HEPES (pH 7.5), 2 mM dithiotheitol, 0.01% Triton X-100), and after the solution was incubated for 40 minutes at 25° C., a kinase reaction was carried out. The reaction was terminated by adding EDTA thereto in order to obtain a final concentration of 30 mM. Finally, a substrate peptide that was not phosphorylated (S) and a phosphorylated peptide (P) were separated and detected by microchannel capillary electrophoresis using a LabChip EZ Reader II (PerkinElmer, Inc.).

A431 cells / TMD8 cells = assay: Proliferation inhibitory activity against cell lines expressing BTK and EGFR (in vitro), comparison of selectivity; type: cell-based, human; settings: ratio from GI50 (nM), 3 days culture, CELLTITER GLO
Source text: TMD8 cells, which are of a diffuse large B-cell lymphoma cell line expressing BTK, were suspended in RPMI1640 medium (manufactured by Life Technologies Corp.) containing 10% fetal bovine serum. A431 cells, which are of an EGFR-overexpressing, highly activated human epidermoid carcinoma cell line, were suspended in DMEM, high glucose medium (manufactured by Life Technologies Corp.) containing 10% fetal bovine serum. The cell suspensions were inoculated into each well of 384-well flat-bottomed microplates, and the cells were cultured for 1 day at 37° C. in an incubator containing 5% carbon dioxide gas. […] A DMSO solution of the test compounds was diluted with the medium used in the suspension of the each cells, and this was added to each of the wells of the cell culture plates such that the final concentration of DMSO would be 0.2%. The cells were further cultured for 3 days at 37° C. in an incubator containing 5% carbon dioxide gas. […] Proliferation inhibition ratio (%)=(C−T)/(C−C0)×100
T: Luminescence intensity of a well in which the test compound was added
C: Luminescence intensity of a well in which the test compound was not added
C0: Luminescence intensity of a well measured before the addition of the test compound
When a comparison is made between the cell proliferation inhibitory activity against A431 cells that depends on the EGFR proliferation signaling and the cell proliferation inhibitory activity against TMD8 cells that depends on the BTK proliferation signaling, the influence of the respective kinases at a cellular level is able to be evaluated. That is, when the “A431 cell proliferation inhibition ratio/TMD8 cell proliferation inhibition ratio” is calculated, it is contemplated that as the value of the ratio is larger, the selectivity to BTK over EGFR in the cells is higher.

purified recombinant human BTK protein, sequence (Q06187 whole entry): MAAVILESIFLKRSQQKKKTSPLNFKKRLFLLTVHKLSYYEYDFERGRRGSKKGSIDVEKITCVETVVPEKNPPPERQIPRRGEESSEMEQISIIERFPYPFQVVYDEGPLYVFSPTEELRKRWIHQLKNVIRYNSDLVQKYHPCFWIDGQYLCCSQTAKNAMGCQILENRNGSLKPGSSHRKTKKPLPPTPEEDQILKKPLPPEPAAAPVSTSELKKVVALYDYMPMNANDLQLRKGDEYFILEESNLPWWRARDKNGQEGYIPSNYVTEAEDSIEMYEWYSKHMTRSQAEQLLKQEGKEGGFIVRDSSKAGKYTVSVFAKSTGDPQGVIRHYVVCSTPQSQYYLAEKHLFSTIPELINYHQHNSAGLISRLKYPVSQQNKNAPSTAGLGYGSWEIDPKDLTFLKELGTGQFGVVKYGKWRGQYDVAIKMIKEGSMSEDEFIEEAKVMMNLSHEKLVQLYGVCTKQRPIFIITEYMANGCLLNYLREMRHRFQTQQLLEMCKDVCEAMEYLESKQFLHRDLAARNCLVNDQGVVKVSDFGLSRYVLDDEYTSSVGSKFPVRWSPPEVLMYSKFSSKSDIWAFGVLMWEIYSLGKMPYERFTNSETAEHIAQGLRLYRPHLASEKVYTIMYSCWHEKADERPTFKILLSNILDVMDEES

SMILES | IC50 [1] [nM] | A431 cell proliferation inhibition ratio/TMD8 cell proliferation inhibitio ratio (A431 cells / TMD8 cells)
C=CC(=O)N1CC[C@@H](n2nc(C(=O)Nc3nc4cc(C)ccc4o3)c3c(N)ncnc32)C1 [Example 29, (R)-1-(1-acryloylpyrrolidin-3-yl)-4-amino-N-(5-methylbenzo[d]oxazol-2-yl)-1H-pyrazolo[3,4-d]pyrimidine-3-carboxamide] | 0.485 | 1243.4
C=CC(=O)N1CCC(Cn2nc(C(=O)Nc3nc4ccccc4o3)c3c(N)ncnc32)C1 (stereo not drawn) [Example 66, 1-((1-acryloylpyrrolidin-3-yl)methyl)-4-amino-N-(benzo[d]oxazol-2-yl)-1H-pyrazolo[3,4-d]pyrimidine-3-carboxamide] | 17 | >1205.7
C/C=C/C(=O)N1CCC[C@@H](n2nc(C(=O)Nc3nc4ccccc4o3)c3c(N)ncnc32)C1 [Example 14, (R,E)-4-amino-N-(benzo[d]oxazol-2-yl)-1-(1-(but-2-enoyl)piperidin-3-yl)-1H-pyrazolo[3,4-d]pyrimidine-3-carboxamide] |  | >1400.6
C=CC(=O)N1CCC[C@@H](n2nc(C(=O)Nc3nc4cc(C)c(C)cc4o3)c3c(N)ncnc32)C1 [Example 23, (R)-1-(1-acryloylpiperidin-3-yl)-4-amino-N-(5,6-dimethylbenzo[d]oxazol-2-yl)-1H-pyrazolo[3,4-d]pyrimidine-3-carboxamide] | 1.58 | >10680
C=CC(=O)N1CC[C@@H](n2nc(C(=O)Nc3nc4cc(-c5cccs5)ccc4o3)c3c(N)ncnc32)C1 [Example 28, (R)-1-(1-acryloylpyrrolidin-3-yl)-4-amino-N-(5-(thiophen-2-yl)benzo[d]oxazol-2-yl)-1H-pyrazolo[3,4-d]pyrimidine-3-carboxamide] | 0.559 | 2040.3
C=CC(=O)N1CCC[C@@H](n2nc(C(=O)Nc3nc4cc(Cl)ccc4o3)c3c(N)ncnc32)C1 [Example 1, (R)-1-(1-acryloylpiperidin-3-yl)-4-amino-N-(5-chlorobenzo[d]oxazol-2-yl)-1H-pyrazolo[3,4-d]pyrimidine-3-carboxamide] | 0.415 | 1062.9
C=CC(=O)N1CCC[C@@H](n2nc(C(=O)Nc3nc4cc(OC)ccc4o3)c3c(N)ncnc32)C1 [Example 7, (R)-1-(1-acryloylpiperidin-3-yl)-4-amino-N-(5-methoxybenzo[d]oxazol-2-yl)-1H-pyrazolo[3,4-d]pyrimidine-3-carboxamide] |  | 5440.9
C=CC(=O)N1CC[C@@H](n2cc(C(=O)Nc3nc4cc(Cl)ccc4o3)c3c(N)ncnc32)C1 [Example 48, (R)-7-(1-acryloylpyrrolidin-3-yl)-4-amino-N-(5-chlorobenzo[d]oxazol-2-yl)-7H-pyrrolo[2,3-d]pyrimidine-5-carboxamide] | 0.836 | 2496.4
C=CC(=O)N1CC[C@@H](n2nc(C(=O)Nc3nc4cc(OC)ccc4o3)c3c(N)ncnc32)C1 [Example 38, (R)-1-(1-acryloylpyrrolidin-3-yl)-4-amino-N-(5-methoxybenzo[d]oxazol-2-yl)-1H-pyrazolo[3,4-d]pyrimidine-3-carboxamide] |  | 2868.1
C=CC(=O)N1CC[C@@H](n2nc(C(=O)Nc3nc4cc(-c5ccccc5)ccc4o3)c3c(N)ncnc32)C1 [Example 41, (R)-1-(1-acryloylpyrrolidin-3-yl)-4-amino-N-(5-phenylbenzo[d]oxazol-2-yl)-1H-pyrazolo[3,4-d]pyrimidine-3-carboxamide] |  | 1667.7
C=CC(=O)N1CCC[C@@H](n2nc(C(=O)Nc3nc4cc(CCOC)ccc4o3)c3c(N)ncnc32)C1 [Example 8, (R)-1-(1-acryloylpiperidin-3-yl)-4-amino-N-(5-(2-methoxyethyl)benzo[d]oxazol-2-yl)-1H-pyrazolo[3,4-d]pyrimidine-3-carboxamide] |  | 25303.8
C=CC(=O)N1CC[C@@H](n2nc(C(=O)Nc3nc4ccccc4o3)c3c(N)ncnc32)C1 [Example 27, (R)-1-(1-acryloylpyrrolidin-3-yl)-4-amino-N-(benzo[d]oxazol-2-yl)-1H-pyrazolo[3,4-d]pyrimidine-3-carboxamide] |  | 4155.9
C=CC(=O)N1CCC[C@@H](n2nc(C(=O)Nc3nc4cc(Br)ccc4o3)c3c(N)ncnc32)C1 [Example 2, (R)-1-(1-acryloylpiperidin-3-yl)-4-amino-N-(5-bromobenzo[d]oxazol-2-yl)-1H-pyrazolo[3,4-d]pyrimidine-3-carboxamide] | 0.464 | >1033.6
CN(C)C/C=C/C(=O)N1CCC[C@@H](n2nc(C(=O)Nc3nc4cc(-c5cccs5)ccc4o3)c3c(N)ncnc32)C1 [Example 21, (R,E)-4-amino-N-(5-(thiophen-2-yl)benzo[d]oxazol-2-yl)-1-(1-(4-(dimethylamino)but-2-enoyl)piperidin-3-yl)-1H-pyrazolo[3,4-d]pyrimidine-3-carboxamide] |  | 4909.1
C=CC(=O)N1CCC(n2nc(C(=O)Nc3nc4cc(Cl)ccc4o3)c3c(N)ncnc32)C1 (stereo not drawn) [Example 84, 1-(1-acryloylpyrrolidin-3-yl)-4-amino-N-(5-chlorobenzo[d]oxazol-2-yl)-1H-pyrazolo[3,4-d]pyrimidine-3-carboxamide] |  | >7132.7
C=CC(=O)N1CCC[C@@H](n2nc(C(=O)Nc3nc4c(C)cccc4o3)c3c(N)ncnc32)C1 [Example 10, (R)-1-(1-acryloylpiperidin-3-yl)-4-amino-N-(4-methylbenzo[d]oxazol-2-yl)-1H-pyrazolo[3,4-d]pyrimidine-3-carboxamide] | 2.38 | 5860.5
C=CC(=O)N1CC(n2cc(C(=O)Nc3nc4cc(Cl)ccc4o3)c3c(N)ncnc32)C1 [Example 46, 7-(1-acryloylazetidin-3-yl)-4-amino-N-(5-chlorobenzo[d]oxazol-2-yl)-7H-pyrrolo[2,3-d]pyrimidine-5-carboxamide] | 3.27 | 7662.2
C=CC(=O)N1CC[C@@H](n2nc(C(=O)Nc3nc4cc(Cl)ccc4o3)c3c(N)ncnc32)C1 [Example 24, (R)-1-(1-acryloylpyrrolidin-3-yl)-4-amino-N-(5-chlorobenzo[d]oxazol-2-yl)-1H-pyrazolo[3,4-d]pyrimidine-3-carboxamide] | 0.591 | 3266.5
C=CC(=O)N1CC[C@@H](n2nc(C(=O)Nc3nc4cc(C(F)(F)F)ccc4o3)c3c(N)ncnc32)C1 [Example 43, (R)-1-(1-acryloylpyrrolidin-3-yl)-4-amino-N-(5-(trifluoromethyl)benzo[d]oxazol-2-yl)-1H-pyrazolo[3,4-d]pyrimidine-3-carboxamide] | 0.546 | 
C=CC(=O)N1CC[C@H](n2nc(C(=O)Nc3nc4ccccc4o3)c3c(N)ncnc32)C1 [Example 65, (S)-1-(1-acryloylpyrrolidin-3-yl)-4-amino-N-(benzo[d]oxazol-2-yl)-1H-pyrazolo[3,4-d]pyrimidine-3-carboxamide] | 79 | 
